Assay results published in the supplement of paper PMC10307832.

Assays:
Test in all cases: relative viability (nuclei count vs DMSO), 5 days (fraction); higher = more cells survive
[1] = compound: Cc1ccc(NC(=O)c2ccc(CN3CCN(C)CC3)cc2)cc1Nc1nccc(-c2cccnc2)n1 [Imatinib] + COc1cc2c(Oc3ccc(NC(=O)C4(C(=O)Nc5ccc(F)cc5)CC4)cc3F)ccnc2cc1OCCCN1CCOCC1 [Foretinib] (partner 0.25 µM)
Procedure, shortened: (§1)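 Each reported value is a median over duplicate plates. It expresses relative viability: treated-well nuclei count divided by vehicle-well nuclei count. Lung cancer cell lines in 1536-well plates were dosed by pin tool a day after seeding, alone with one drug or with a fixed anchor-drug dose plus five library-drug doses (not always all listed) in √10 steps, and nuclei were counted after 5 days.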

[2] = compound: Cc1ccc(NC(=O)c2ccc(CN3CCN(C)CC3)cc2)cc1Nc1nccc(-c2cccnc2)n1 [Imatinib] + CC(=O)c1c(C)c2cnc(Nc3ccc(N4CCNCC4)cn3)nc2n(C2CCCC2)c1=O [Palbociclib] (partner 0.5 µM)
Procedure, shortened: as §1

[3] = compound: Cc1ccc(NC(=O)c2ccc(CN3CCN(C)CC3)cc2)cc1Nc1nccc(-c2cccnc2)n1 [Imatinib] + Cc1cc(Nc2cc(N3CCN(C)CC3)nc(Sc3ccc(NC(=O)C4CC4)cc3)n2)n[nH]1 [Tozasertib] (partner 0.1 µM)
Procedure, shortened: as §1

[4] = compound: Cc1ccc(NC(=O)c2ccc(CN3CCN(C)CC3)cc2)cc1Nc1nccc(-c2cccnc2)n1 [Imatinib] + NC(=O)Nc1cc(-c2cccc(F)c2)sc1C(=O)N[C@H]1CCCNC1 [AZD7762] (partner 0.2 µM)
Procedure, shortened: as §1

Row | Cell Line | relative viability ([1]; first compound 0.02 µM) | relative viability ([1]; first compound 0.06325 µM) | relative viability ([1]; first compound 0.2 µM) | relative viability ([1]; first compound 0.6325 µM) | relative viability ([1]; first compound 2 µM) | relative viability ([2]; first compound 0.02 µM) | relative viability ([2]; first compound 0.2 µM) | relative viability ([2]; first compound 0.6325 µM) | relative viability ([2]; first compound 2 µM) | relative viability ([3]; first compound 0.02 µM) | relative viability ([3]; first compound 0.06325 µM) | relative viability ([3]; first compound 0.2 µM) | relative viability ([3]; first compound 0.6325 µM) | relative viability ([3]; first compound 2 µM) | relative viability ([4]; first compound 0.02 µM) | relative viability ([4]; first compound 0.2 µM) | relative viability ([4]; first compound 0.6325 µM) | relative viability ([4]; first compound 2 µM) | relative viability ([2]; first compound 0.06325 µM) | relative viability ([4]; first compound 0.06325 µM)
1 | IA-LM | 1.34 | 1.2 | 1.06 | 1.4 | 1.17 | – | – | – | – | – | – | – | – | – | – | – | – | – | – | –
2 | LC-2-ad | 0.926 | 0.676 | 0.886 | 0.819 | 0.982 | 0.543 | 0.559 | 0.5 | 0.508 | 0.439 | 0.439 | 0.514 | 0.2 | 0.419 | 0.965 | 0.76 | 0.772 | 0.813 | – | –
3 | LCLC-97TM1 | 0.934 | – | 1.03 | 0.927 | 0.905 | 0.25 | 0.267 | 0.172 | 0.219 | 0.236 | – | 0.14 | 0.2 | 0.214 | 0.28 | 0.238 | 0.258 | 0.177 | – | –
4 | LCLC-103H | – | 0.744 | 0.565 | 0.679 | 0.869 | 0.465 | 0.457 | 0.434 | 0.418 | 0.463 | 0.473 | 0.514 | 0.481 | 0.398 | 0.809 | 0.876 | 0.695 | 0.781 | 0.499 | 0.779
5 | LK-2 | 1.18 | 0.908 | 1.65 | 0.83 | 1.32 | 0.757 | – | – | 0.662 | 0.173 | 0.181 | 0.159 | 0.139 | 0.176 | 0.343 | 0.335 | – | 0.33 | 0.726 | 0.442
6 | LOU-NH91 | 0.943 | 0.923 | 0.891 | 0.929 | 0.879 | 0.524 | 0.547 | 0.572 | 0.496 | 0.636 | 0.833 | 0.761 | 0.596 | 0.667 | 0.784 | 0.81 | 0.809 | 0.749 | 0.543 | 0.829
7 | LU99A | 0.772 | 0.879 | 0.894 | 0.857 | 0.772 | 0.394 | 0.411 | 0.413 | 0.454 | 0.283 | 0.31 | 0.219 | 0.261 | 0.238 | 0.437 | 0.336 | 0.254 | 0.405 | 0.424 | 0.274
8 | NCI-H520 | 0.616 | 1.2 | 0.64 | 0.757 | 0.903 | 0.25 | 0.198 | 0.242 | 0.213 | 0.474 | 0.509 | 0.366 | 0.424 | – | – | – | – | – | 0.21 | –
9 | NCI-H596 | 0.948 | – | 0.931 | 0.855 | 0.832 | – | – | – | – | 0.886 | 0.964 | 0.993 | 0.72 | 0.829 | 1.21 | – | 0.948 | 1.13 | – | 1.03
10 | NCI-H661 | 1 | 1.04 | 1.1 | 0.94 | 1.02 | 0.428 | 0.393 | 0.394 | 0.412 | 0.383 | 0.393 | 0.365 | 0.344 | 0.347 | – | – | – | – | 0.368 | –
11 | NCI-H1299 | 1.11 | 1.18 | 1.16 | 1.09 | – | – | – | – | – | – | – | – | – | – | – | – | – | – | – | –
12 | NCI-H1563 | 0.924 | – | 0.902 | 0.845 | 0.925 | – | – | – | – | – | – | – | – | – | – | – | – | – | – | –
13 | NCI-H1648 | – | – | – | – | – | 0.23 | 0.256 | 0.267 | 0.237 | 0.542 | 0.349 | 0.426 | – | 0.443 | 0.723 | 0.686 | 0.642 | 0.526 | 0.262 | 0.732
14 | NCI-H1650 | 0.962 | – | 1.01 | 1.2 | 1.06 | 0.341 | 0.342 | 0.295 | 0.301 | 0.449 | 0.405 | 0.337 | 0.37 | 0.303 | – | – | – | – | 0.344 | –
15 | NCI-H1703 | 0.329 | 0.397 | 0.372 | 0.402 | 0.347 | – | – | – | – | – | – | – | – | – | 0.135 | 0.103 | 0.124 | 0.114 | – | –
16 | NCI-H1792 | – | – | – | – | – | 0.608 | 0.655 | 0.573 | 0.736 | – | – | – | – | – | 0.727 | 0.513 | – | 0.34 | 0.542 | 0.7
17 | NCI-H2009 | 1.29 | – | 1.27 | 1.25 | 1.23 | 0.202 | 0.194 | 0.2 | 0.203 | 0.832 | – | 0.765 | 0.71 | 0.711 | – | – | – | – | 0.157 | –
18 | NCI-H2023 | 0.87 | – | 0.873 | – | 0.776 | 0.537 | 0.387 | – | 0.345 | 0.461 | 0.319 | 0.254 | 0.259 | 0.18 | – | – | – | – | 0.494 | –
19 | NCI-H2228 | 0.905 | – | 0.891 | 0.886 | 0.899 | 1.06 | 0.664 | 0.916 | 0.697 | 0.196 | – | 0.205 | 0.186 | 0.203 | – | – | – | – | 0.73 | –
20 | SK-LU-1 | 0.978 | 0.888 | 0.892 | 0.73 | 0.869 | 0.427 | 0.418 | 0.34 | 0.425 | 0.336 | 0.322 | 0.316 | 0.303 | 0.28 | – | – | – | – | 0.427 | –
21 | SK-MES-1 | 0.957 | 0.915 | 1.03 | 0.786 | 0.963 | 0.318 | 0.321 | 0.316 | 0.294 | 0.994 | 1.02 | 1.13 | 0.906 | 0.821 | – | – | – | – | 0.336 | –
22 | SW 1573 | 1.04 | 0.469 | 1.03 | 0.893 | 0.908 | 0.404 | 0.41 | 0.265 | 0.405 | 0.174 | 0.231 | 0.202 | 0.131 | 0.175 | – | – | – | – | 0.435 | –
23 | UMC-11 | 0.981 | 1.31 | 0.973 | 1.14 | 1.11 | 0.333 | 0.333 | 0.33 | 0.269 | 0.192 | 0.205 | 0.216 | 0.211 | 0.208 | – | – | – | – | 0.337 | –
